# Laboratory results from patent US20100021918A1, “METHOD FOR ASSAYING ACTION OF ANTITUMOR AGENT USING SPLICING DEFECTS AS INDEX” (Eisai R&D Management Co., Ltd., priority 2007, published 2010).
# Test system: peripheral blood mononuclear cells (PBMC)
# Assay: Microarray analysis (3), dose-dependent intron expression in PBMC at 3, 10, 30 nM, Table 5
# Assay type: cell-based, human
# Experimental: PBMC was suspended in RPMI1640 medium (containing 10% FBS, penicillin, and streptomycin) to 5×10^6 cells/ml and 1 ml of the suspension was plated per well of a 24-well plate. Immediately, 111 μl of 10 times-concentrated (8E,12E,14E)-7-((4-cycloheptylpiperazin-1-yl)carbonyl)oxy-3,6,16,21-tetrahydroxy-6,10,12,16,20-pentamethyl-18,19-epoxytricosa-8,12,14-trien-11-olide was added to the well (six wells per each concentration tested). The cells were then cultured in an incubator with 5% carbon dioxide gas at 37° C. Three hours later, the supernatant was collected and centrifuged at 1500 rpm for five minutes. TRI reagent (SIGMA) (1 ml) was added to each well of the plate from which the supernatant was removed to harvest the cells, which was added to the centrifuged pellet to dissolve. RNA was purified in accordance with the protocol of TRI reagent. RNA was further purified using RNeasy (QIAGEN) and, in accordance with the protocol, DNaseI was added to the samples during the procedure. Absorbance at 260 nm was measured to quantify an amount of RNA.
# Ribosomal RNA was removed from 1 μg of each total RNA of control cells (n=3) and cells with the treatment (n=3) using RiboMinus Human/Mouse Transcriptome Isolation Kit (Invitrogen). Single stranded cDNA synthesis, double stranded cDNA synthesis, cRNA synthesis, second single stranded cDNA synthesis, cDNA fragmentation, and cDNA labeling in order were carried out for total RNA from which ribosomal RNA was removed, using GeneChip Whole Transcript Sense Target Labeling and Control Reagents (Affymetrix) to make a cDNA probe. Subsequently, the cDNA probe was used for hybridization with Human Exon 1.0 ST Array (Affymetrix). The array was washed and stained, and luminescence intensity was measured by a scanner.
# The expression level of the probe set and the gene was quantified by using Expression Console Ver. 1.0 (Affymetrix) with Summarization Method and Normalization Method being set to “Median polish as used in RMA” and “None”, respectively. The expression level of the probe was normalized with that of the gene.
# Probe sets showing that the normalized change in the level expression of the probe set in the group with the treatment at 30 nM was more than 5 times; the expression level of the probe set and the gene in the group with the treatment at 30 nM was more than 100; and probe set annotation was “extended, full, free”, were picked out. Regression analysis was performed with the probe sets extracted for the control group, the group with the treatment at 3 nM, the group with the treatment at 10 nM, and the group with the treatment at 30 nM to determine a p and q value for the slope of regression formula. A gene containing the probe sets with the q value of less than 5% was determined as a candidate gene with increased expression level of the intron regions (Table 5).
# In Table 5, for the gene evaluated, gene name (Gene Name), abbreviated name (Gene Symbol), accession number (Accession), alias name (Synonym), transcription cluster number in Human Exon 1.0 ST Array (Human Exon 1.0 ST Array Transcription Cluster ID), chromosome number (Chromosome), type of strand (Strand), start region (Start), stop region (Stop), and change in expression level per 1 nM (Fold Change/nM) were respectively shown.
compound,measurement,setting,value
"CCC(O)C(C)C1OC1CC(C)(O)/C=C/C=C(\C)C1OC(=O)CC(O)CCC(C)(O)C(OC(=O)N2CCN(C3CCCCCC3)CC2)/C=C/C1C (stereo not shown) [E7107, (8E,12E,14E)-7-((4-cycloheptylpiperazin-1-yl)carbonyl)oxy-3,6,16,21-tetrahydroxy-6,10,12,16,20-pentamethyl-18,19-epoxytricosa-8,12,14-trien-11-olide]",Fold Change/nM,"gene ABCC1, intron expression, 3, 10, 30 nM",1.05 nM⁻¹
same,Fold Change/nM,"gene ADAR introns, regression over control, 3, 10, 30 nM",1.05 nM⁻¹
same,Fold Change/nM,"gene AMPD3 // PPARA // TRMU // GTSE1, intron expression, 3, 10, 30 nM",1.05 nM⁻¹
same,Fold Change/nM,"gene ANKH introns, regression over control, 3, 10, 30 nM",1.05 nM⁻¹
same,Fold Change/nM,"gene ARF1 introns, regression over control, 3, 10, 30 nM",1.05 nM⁻¹
same,Fold Change/nM,"gene ARHGDIB introns, regression over control, 3, 10, 30 nM",1.05 nM⁻¹
same,Fold Change/nM,"gene ATP8A1 // PCLKC, intron expression, 3, 10, 30 nM",1.05 nM⁻¹
same,Fold Change/nM,"gene AUTS2, intron expression, 3, 10, 30 nM",1.05 nM⁻¹
same,Fold Change/nM,"gene BAT2D1, intron expression, 3, 10, 30 nM",1.05 nM⁻¹
same,Fold Change/nM,"gene BCL9L, intron expression, 3, 10, 30 nM",1.05 nM⁻¹
same,Fold Change/nM,"gene C3orf63, intron expression, 3, 10, 30 nM",1.05 nM⁻¹
same,Fold Change/nM,"gene C13orf18, intron expression, 3, 10, 30 nM",1.05 nM⁻¹
same,Fold Change/nM,"gene C22orf28, intron expression, 3, 10, 30 nM",1.05 nM⁻¹
same,Fold Change/nM,"gene CALR, intron expression, 3, 10, 30 nM",1.05 nM⁻¹
same,Fold Change/nM,"gene CAND1 introns, regression over control, 3, 10, 30 nM",1.05 nM⁻¹
same,Fold Change/nM,"gene CCND2 introns, regression over control, 3, 10, 30 nM",1.05 nM⁻¹
same,Fold Change/nM,"gene CDC2L5, intron expression, 3, 10, 30 nM",1.05 nM⁻¹
same,Fold Change/nM,"gene CEP170 // CEP170L, intron expression, 3, 10, 30 nM",1.05 nM⁻¹
same,Fold Change/nM,"gene CHST11, intron expression, 3, 10, 30 nM",1.05 nM⁻¹
same,Fold Change/nM,"gene DDEF1, intron expression, 3, 10, 30 nM",1.05 nM⁻¹
same,Fold Change/nM,"gene DDX3Y introns, regression over control, 3, 10, 30 nM",1.05 nM⁻¹
same,Fold Change/nM,"gene DDX18 // WNT8B, intron expression, 3, 10, 30 nM",1.05 nM⁻¹
same,Fold Change/nM,"gene DENND4A introns, regression over control, 3, 10, 30 nM",1.05 nM⁻¹
same,Fold Change/nM,"gene DPF2, intron expression, 3, 10, 30 nM",1.05 nM⁻¹
same,Fold Change/nM,"gene DRAM, intron expression, 3, 10, 30 nM",1.05 nM⁻¹
same,Fold Change/nM,"gene DUSP16, intron expression, 3, 10, 30 nM",1.05 nM⁻¹
same,Fold Change/nM,"gene EDD1, intron expression, 3, 10, 30 nM",1.05 nM⁻¹
same,Fold Change/nM,"gene EIF3S10, intron expression, 3, 10, 30 nM",1.05 nM⁻¹
same,Fold Change/nM,"gene EIF4A1 // SENP3, intron expression, 3, 10, 30 nM",1.05 nM⁻¹
same,Fold Change/nM,"gene FBXO11, intron expression, 3, 10, 30 nM",1.05 nM⁻¹
same,Fold Change/nM,"gene FNTA, intron expression, 3, 10, 30 nM",1.05 nM⁻¹
same,Fold Change/nM,"gene FOXK2, intron expression, 3, 10, 30 nM",1.05 nM⁻¹
same,Fold Change/nM,"gene FOXO3A, intron expression, 3, 10, 30 nM",1.05 nM⁻¹
same,Fold Change/nM,"gene GAK, intron expression, 3, 10, 30 nM",1.05 nM⁻¹
same,Fold Change/nM,"gene GDI1 introns, regression over control, 3, 10, 30 nM",1.05 nM⁻¹
same,Fold Change/nM,"gene GNA12, intron expression, 3, 10, 30 nM",1.05 nM⁻¹
same,Fold Change/nM,"gene GP5 // ZNF394, intron expression, 3, 10, 30 nM",1.05 nM⁻¹
same,Fold Change/nM,"gene GTF3C4 introns, regression over control, 3, 10, 30 nM",1.05 nM⁻¹
same,Fold Change/nM,"gene GTPBP4, intron expression, 3, 10, 30 nM",1.05 nM⁻¹
same,Fold Change/nM,"gene IDI1 introns, regression over control, 3, 10, 30 nM",1.05 nM⁻¹
same,Fold Change/nM,"gene IFNGR1 introns, regression over control, 3, 10, 30 nM",1.05 nM⁻¹
same,Fold Change/nM,"gene KIAA0226 introns, regression over control, 3, 10, 30 nM",1.05 nM⁻¹
same,Fold Change/nM,"gene KLF9 introns, regression over control, 3, 10, 30 nM",1.05 nM⁻¹
same,Fold Change/nM,"gene LDLR introns, regression over control, 3, 10, 30 nM",1.05 nM⁻¹
same,Fold Change/nM,"gene MAPK6, intron expression, 3, 10, 30 nM",1.05 nM⁻¹
same,Fold Change/nM,"gene MKI67IP introns, regression over control, 3, 10, 30 nM",1.05 nM⁻¹
same,Fold Change/nM,"gene MLL3 // ADAMTS2 // LRRK1 // BAGE3 introns, regression over control, 3, 10, 30 nM",1.05 nM⁻¹
same,Fold Change/nM,"gene MLLT3, intron expression, 3, 10, 30 nM",1.05 nM⁻¹
same,Fold Change/nM,"gene MTMR6 introns, regression over control, 3, 10, 30 nM",1.05 nM⁻¹
same,Fold Change/nM,"gene MYD88, intron expression, 3, 10, 30 nM",1.05 nM⁻¹
same,Fold Change/nM,"gene NFKB2, intron expression, 3, 10, 30 nM",1.05 nM⁻¹
same,Fold Change/nM,"gene NIPBL // NRBP1 introns, regression over control, 3, 10, 30 nM",1.05 nM⁻¹
same,Fold Change/nM,"gene NPAT, intron expression, 3, 10, 30 nM",1.05 nM⁻¹
same,Fold Change/nM,"gene NR3C1, intron expression, 3, 10, 30 nM",1.05 nM⁻¹
same,Fold Change/nM,"gene PAK2, intron expression, 3, 10, 30 nM",1.05 nM⁻¹
same,Fold Change/nM,"gene PJA2 introns, regression over control, 3, 10, 30 nM",1.05 nM⁻¹
same,Fold Change/nM,"gene PLEK, intron expression, 3, 10, 30 nM",1.05 nM⁻¹
same,Fold Change/nM,"gene PLEKHM1, intron expression, 3, 10, 30 nM",1.05 nM⁻¹
same,Fold Change/nM,"gene POLR3E introns, regression over control, 3, 10, 30 nM",1.05 nM⁻¹
same,Fold Change/nM,"gene PPP1CB, intron expression, 3, 10, 30 nM",1.05 nM⁻¹
same,Fold Change/nM,"gene PRKAR1A, intron expression, 3, 10, 30 nM",1.05 nM⁻¹
same,Fold Change/nM,"gene PRPF4B, intron expression, 3, 10, 30 nM",1.05 nM⁻¹
same,Fold Change/nM,"gene PSEN1, intron expression, 3, 10, 30 nM",1.05 nM⁻¹
same,Fold Change/nM,"gene PSMD11, intron expression, 3, 10, 30 nM",1.05 nM⁻¹
same,Fold Change/nM,"gene RANGAP1, intron expression, 3, 10, 30 nM",1.05 nM⁻¹
same,Fold Change/nM,"gene RARA, intron expression, 3, 10, 30 nM",1.05 nM⁻¹
same,Fold Change/nM,"gene RBM23 // C9orf102, intron expression, 3, 10, 30 nM",1.05 nM⁻¹
same,Fold Change/nM,"gene SETD5, intron expression, 3, 10, 30 nM",1.05 nM⁻¹
same,Fold Change/nM,"gene SF3B1, intron expression, 3, 10, 30 nM",1.05 nM⁻¹
same,Fold Change/nM,"gene SF3B2, intron expression, 3, 10, 30 nM",1.05 nM⁻¹
same,Fold Change/nM,"gene SFPQ, intron expression, 3, 10, 30 nM",1.05 nM⁻¹
same,Fold Change/nM,"gene SFRS2IP introns, regression over control, 3, 10, 30 nM",1.05 nM⁻¹
same,Fold Change/nM,"gene SFRS3, intron expression, 3, 10, 30 nM",1.05 nM⁻¹
same,Fold Change/nM,"gene SLFN11, intron expression, 3, 10, 30 nM",1.05 nM⁻¹
same,Fold Change/nM,"gene ST8SIA4 introns, regression over control, 3, 10, 30 nM",1.05 nM⁻¹
same,Fold Change/nM,"gene STX6, intron expression, 3, 10, 30 nM",1.05 nM⁻¹
same,Fold Change/nM,"gene SUPV3L1 introns, regression over control, 3, 10, 30 nM",1.05 nM⁻¹
same,Fold Change/nM,"gene THRAP1 introns, regression over control, 3, 10, 30 nM",1.05 nM⁻¹
same,Fold Change/nM,"gene TLR4, intron expression, 3, 10, 30 nM",1.05 nM⁻¹
same,Fold Change/nM,"gene TMEM1, intron expression, 3, 10, 30 nM",1.05 nM⁻¹
same,Fold Change/nM,"gene TMEM2, intron expression, 3, 10, 30 nM",1.05 nM⁻¹
same,Fold Change/nM,"gene TNFSF8, intron expression, 3, 10, 30 nM",1.05 nM⁻¹
same,Fold Change/nM,"gene TRAF3 introns, regression over control, 3, 10, 30 nM",1.05 nM⁻¹
same,Fold Change/nM,"gene UBXD2 introns, regression over control, 3, 10, 30 nM",1.05 nM⁻¹
same,Fold Change/nM,"gene USP4, intron expression, 3, 10, 30 nM",1.05 nM⁻¹
same,Fold Change/nM,"gene USP38, intron expression, 3, 10, 30 nM",1.05 nM⁻¹
same,Fold Change/nM,"gene USP47 introns, regression over control, 3, 10, 30 nM",1.05 nM⁻¹
same,Fold Change/nM,"gene YME1L1, intron expression, 3, 10, 30 nM",1.05 nM⁻¹
same,Fold Change/nM,"gene ZNF267, intron expression, 3, 10, 30 nM",1.05 nM⁻¹
same,Fold Change/nM,"introns of gene ACSL1, regression over control, 3, 10, 30 nM",1.07 nM⁻¹
same,Fold Change/nM,"introns of gene BASP1, regression over control, 3, 10, 30 nM",1.07 nM⁻¹
same,Fold Change/nM,"introns of gene CD2, regression over control, 3, 10, 30 nM",1.07 nM⁻¹
same,Fold Change/nM,"introns of gene EIF2C2, regression over control, 3, 10, 30 nM",1.07 nM⁻¹
same,Fold Change/nM,"introns of gene GCH1, regression over control, 3, 10, 30 nM",1.07 nM⁻¹
same,Fold Change/nM,"introns of gene ITGAV, regression over control, 3, 10, 30 nM",1.08 nM⁻¹
same,Fold Change/nM,"introns of gene NFKB1, regression over control, 3, 10, 30 nM",1.07 nM⁻¹
same,Fold Change/nM,"introns of gene NUMB, regression over control, 3, 10, 30 nM",1.07 nM⁻¹
same,Fold Change/nM,"introns of gene PRKCE, regression over control, 3, 10, 30 nM",1.07 nM⁻¹
same,Fold Change/nM,"introns of gene PSMD3, regression over control, 3, 10, 30 nM",1.07 nM⁻¹
same,Fold Change/nM,"introns of gene QKI, regression over control, 3, 10, 30 nM",1.07 nM⁻¹
